Results as given in publication PMC9354705, “Characterization of TR‐107, a novel chemical activator of the human mitochondrial protease ClpP” (Pharmacology Research & Perspectives, 2022).
Like-named read-outs stand apart in the source and are kept apart here.

How the values were obtained:
[1] = system: MDA‐MB‐231 cells; assay: Cell viability (total cell count, Hoechst stain) in MDA‐MB‐231 cells; assay type: cell-based, human; conditions: Homo sapiens, MDA-MB-231, 72 h
[2] = Pharmacokinetic analysis in ICR mice; assay type: in vivo, mouse; conditions: for bioavailability: 10 mg/kg oral vs 2.0 mg/kg i.v., read-out: F% (oral bioavailability)
Description: Samples were placed in tubes containing heparin sodium and stored on ice until centrifuged. Blood samples were centrifuged at 6800g for 6 min at 2–8°C within 1 h following sample collection and stored at −80°C. Proteins from plasma sample aliquots (20 μl) were precipitated by the addition of MeOH (400 μl) containing an internal standard (tolbutamide,100 ng/ml), vortexed for 1 min, and centrifuged at 18 000g for 7 min. The supernatant (200 μl) was transferred to 96 well plates for analysis.
Analysis of samples was conducted as follows. […] The PK parameters including Area Under the Curve (AUC[0–∞]) elimination half‐life (t 1/2), maximal plasma concentration (C max), and oral bioavailability (F%) were analyzed by noncompartmental methods.

[3] = system: MDA‐MB‐231 or SUM159 cells; assay: Caspase‐3/7 activity assay and PARP cleavage; assay type: cell-based, human; conditions: for caspase‐3/7 activity: 24 h, 10 μM ONC201, 150 nM TR‐57, 100 nM TR‐107, 100 nM staurosporine; for PARP cleavage: data not shown
Description: […]. The samples were collected in lysis buffer (50 mM HEPES [pH: 7.4], 5 mM CHAPS, and 5 mM DTT), and caspase activity was measured by monitoring fluorescence (ex/em: 360/460 nm) using a SpectraMax i3x (Molecular Devices).

[4] = system: MDA‐MB‐231 and SUM159 cells; assay: Immunoblotting for mitochondrial proteins; assay type: cell-based, human; conditions: 100 nM TR‐107, 150 nM TR‐57, or 10 μM ONC201
Description: Cell lysates were clarified and immunoblotted as described earlier.[45] Membranes were incubated with primary antibodies (Appendix S1) diluted 1:1000 in 1% fish gelatin (Sigma‐Aldrich, G7041)/TBST overnight at 4°C, removed, washed 3 × 5 min in TBST, and placed in their respective 2° antibodies (1:10 000 dilution in 5% milk/TBST) for 1 h. […] Acquired images were processed/quantified using Image Lab software (BioRad) or Image Studio Lite (LI‐COR).

[5] = cited from earlier work
[6] = system: SUM159 cells; assay: Cell viability (total cell count, Hoechst stain) in SUM159 cells; assay type: cell-based; conditions: Homo sapiens, WT cells, 72 h, mean N = 3
Description: Human TNBC cell line SUM159 was a generous gift from Dr. Gary Johnson (the University of North Carolina at Chapel Hill). MDA‐MB‐231 (WT and CLPP‐KO) cells were provided by Dr. Stanley Lipkowitz (National Cancer Institute). MDA‐MB‐231 cells were cultured in RPMI‐1640 media (Gibco, 11875‐093) supplemented with 10% fetal bovine serum (FBS; VWR‐Seradigm, 97068‐085), and 1% antibiotic–antimycotic (anti/anti; ThermoFisher Scientific, 15240062). SUM159 cells were cultured in Dulbecco's modified Eagle's medium: Nutrient Mixture F‐12 (DMEM/F12; Gibco, 11330‐032) supplemented with 5% FBS, 5 μg/ml insulin (Gibco, 12585014), 1 μg/ml hydrocortisone, and 1% anti/anti. Cells were maintained at 5% CO2 and 37°C and periodically tested for mycoplasma.
Total cell counting assays were performed by seeding MDA‐MB‐231 cells (WT and ClpP‐KO; 4000 cells/well) or SUM159 (WT and ClpP‐KO; 1000 cells/well) in a 96‐well plate (Perkin Elmer, 6005050) and allowed to adhere overnight. The growth medium was then aspirated and replaced with 100 μl of growth medium supplemented with the drug at concentrations indicated in the figure or figure legends. Cells treated with vehicle control (0.1% DMSO, Sigma‐Aldrich D2650) were used as a negative control in all experiments, and cells were incubated with drug‐containing media for 24, 48, or 72 h as indicated in figure legends. Media was then aspirated and replaced with 100 μl Dulbecco's phosphate‐buffered saline (DPBS Gibco, 14190‐144) containing 1 μg/ml Hoechst stain (ThermoFischer Scientific, H3570) and allowed to incubate at 37°C for 30 min. The total cell number was then quantified using the Celigo Imaging Cytometer (Nexcelom).

[7] = target: purified recombinant human ClpP (Homo sapiens, UniProt Q16740); assay: In vitro ClpP activity assay (casein‐FITC degradation); assay type: biochemical; conditions: relative to DMSO, read-out: EC50 (nM) ClpP activation
Description: Measurement of in vitro activity of purified recombinant human ClpP was performed with a slight modification to the method previously described.[46] Briefly, ClpP activity was measured through the degradation of casein‐FITC (Sigma‐Aldrich, C0528) in the presence of indicated compounds. […] Enzyme and compounds were mixed and incubated in assay buffer for 30 min before adding casein‐FITC substrate. […] Linear slope of fluorescence signal was used to measure ClpP activity and normalized to DMSO control, expressed as RFU/h.

[8] = system: C3(1)‐Tag cells; assay: Cell viability assay of C3Tag cells; assay type: cell-based, murine; conditions: Mus musculus; 72 h, Hoechst stain, N = 2
[9] = male, mouse, plasma, iv, ICR mice, 2.0 mg/kg i.v.
[10] = male, mouse, plasma, iv, ICR mice, 2.0 mg/kg i.v., read-out: C max
[11] = male, mouse, plasma, iv, ICR mice, 2.0 mg/kg i.v., read-out: T 1/2 (converted)
[12] = male, mouse, plasma, ICR mice, 10 mg/kg oral, read-out: C max
[13] = male, mouse, plasma, ICR mice, 10 mg/kg oral, read-out: T 1/2 (converted)
[14] = WT cells, Hoechst stain, mean N = 3, read-out: IC50 (nM) MDA-MB-231
[15] = male, mouse, plasma, iv, ICR mice, 2.0 mg/kg i.v., read-out: C max (mg/ml)
[16] = male, mouse, plasma, ICR mice, 10 mg/kg oral
[17] = male, mouse, plasma, ICR mice, 10 mg/kg oral, read-out: C max (mg/ml)

Sequence of purified recombinant human ClpP (Q16740 57-277): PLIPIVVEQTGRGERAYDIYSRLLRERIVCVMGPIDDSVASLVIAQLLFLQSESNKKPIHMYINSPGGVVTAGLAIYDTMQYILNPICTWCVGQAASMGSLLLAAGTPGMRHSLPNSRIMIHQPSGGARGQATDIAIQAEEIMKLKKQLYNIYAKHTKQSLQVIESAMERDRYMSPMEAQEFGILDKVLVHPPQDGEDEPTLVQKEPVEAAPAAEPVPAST

SMILES | AUC(0-inf) [2, 9] [µg·h/mL] | Cmax [2, 10] [µM] | half-life [2, 11] [h] | bioavailability ([2]; male, mouse, plasma, ICR mice) [%] | Cmax [2, 12] [µM] | half-life [2, 13] [h] | IC50 [1, 14] [nM] | IC50 [6] [nM] | EC50 [7] [nM] | Cmax [2, 15] [µg/mL] | Cmax [2, 17] [µg/mL] | also measured
Cc1ccccc1CN1C(=O)C2=C(CCN(Cc3ccccc3)C2)N2CCN=C12 [ONC201, reference compound] | 0.0507 | 0.31 | 0.26 | 1.2 | 0.023 | 0.31 | – | – | – | – | – | IC50 ([1]; media containing galactose, read-out: IC50 (nM) Galactose): 350 nM; IC50 ([1]; media containing glucose, read-out: IC50 [glucose]): 1700 nM; increase in exposure (AUC) vs 10 mg/kg oral ([2]; 25 mg/kg oral): 46 X; AUC (0–∞) ([2]; ICR mice, 10 mg/kg oral): 0.00313 µg·h/mL; Cmax ([2]; male, mouse, in vivo, iv, ICR mice, 2.0 mg/kg i.v., read-out: C max (mg/ml)): 0.122 µg/mL; Cmax ([2]; male, mouse, in vivo, ICR mice, 10 mg/kg oral, read-out: C max (mg/ml)): 0.00899 µg/mL; Cmax ([2]; male, mouse, in vivo, ICR mice, 25 mg/kg oral, blood collection 0.083–4 h, read-out: C max (mg/ml)): 0.195 µg/mL; AUC(0-inf) ([2]; male, mouse, plasma, ICR mice, 25 mg/kg oral, blood collection 0.083–4 h): 0.145 µg·h/mL; Cmax ([2]; male, mouse, plasma, ICR mice, 25 mg/kg oral, blood collection 0.083–4 h, read-out: C max): 0.5 µM; half-life ([2]; male, mouse, plasma, ICR mice, i.v. 2 mg/kg and oral 10 mg/kg arms, read-out: t 1/2 (range over study arms)): 0.26 to 0.31 h; caspase‐3/7 activity [3]: no increase; PARP cleavage [3]: no increase; TUFM and TFAM protein levels by 24 h [4]: complete or near‐complete loss; time at which TUFM and TFAM protein levels began to decline [4]: ~ 6 h; reported t 1/2 ([5]; in mice, higher doses): 6.4 h
O=C1C2=C(CCN(Cc3ccccc3)C2)N2CCN=C2N1Cc1ccc(F)cc1F [ONC206, reference compound] | – | – | – | – | – | – | 260 | 180 | 830 | – | – | –
O=C1C2=C(CCN(Cc3ccccc3)C2)N2CCN=C2N1Cc1ccc(C(F)(F)F)cc1 [ONC212/TR‐31, reference compound] | 0.638 | 2.2 | 1.68 | 14 | 0.64 | 1.49 | 80 | 27 | 310 | 0.95 | 0.282 | AUC(0-inf) [2, 16]: 0.449 µg·h/mL; reported t 1/2 ([5]; oral dose of 125 mg/kg): 4.3 h
CC(=O)O[C@H]1C(=O)[C@@]2(C)[C@H]([C@H](OC(=O)c3ccccc3)[C@]3(O)C[C@H](OC(=O)[C@H](O)[C@@H](NC(=O)c4ccccc4)c4ccccc4)C(C)=C1C3(C)C)[C@]1(OC(C)=O)CO[C@@H]1C[C@@H]2O [Paclitaxel, paclitaxel, reference compound] | – | – | – | – | – | – | – | – | – | – | – | IC50 [8]: 0.014 µM
CN[C@@H]1C[C@H]2O[C@@](C)([C@@H]1OC)n1c3ccccc3c3c4c(c5c6ccccc6n2c5c31)C(=O)NC4 [Staurosporine, staurosporine, reference compound] | – | – | – | – | – | – | – | – | – | – | – | caspase‐3/7 activity [3]: strong increase
C#Cc1cccc(CN2CCC3=C(C2)C(=O)N(Cc2ccc(Cl)cc2)C2=NCCN23)c1 [TR‐27] | 0.155 | 0.35 | 1.06 | 33 | 0.29 | 1.16 | – | – | – | 0.154 | 0.127 | –
Cn1c2c(c(=O)n(Cc3ccc(Cl)cc3)c1=O)CN(Cc1cccc(C#N)c1)CC2 [TR‐57] | 0.886 | 3 | 1.52 | 61 | 4.1 | 1.4 | – | – | – | 1.24 | 1.71 | AUC ([2]; male, mouse, plasma, po, ICR mice, 10 mg/kg orally, read-out: exposure (AUC)): 2.71 µg·h/mL; AUC(0-inf) [2, 16]: 2.71 µg·h/mL; caspase‐3/7 activity [3]: no increase; PARP cleavage [3]: no increase; TUFM and TFAM protein levels by 24 h [4]: complete or near‐complete loss; time at which TUFM and TFAM protein levels began to decline [4]: ~ 6 h
N#Cc1cccc(CN2CCC3=C(C2)C(=O)N(Cc2ccc(Cl)cc2)C2=NCCN23)c1 [TR‐65] | 0.351 | 1.5 | 0.73 | 33 | 0.67 | 0.95 | – | – | – | 0.636 | 0.294 | AUC(0-inf) [2, 16]: 0.584 µg·h/mL
Cc1nc2c(c(=O)n1Cc1ccc(Cl)cc1)CN(Cc1cccc(C#N)c1)CC2 [TR‐97] | – | – | – | – | – | – | 104 | 53 | 340 | – | – | –
N#Cc1cccc(CN2CCC3=C(C2)C(=O)N(Cc2ccc(C(F)(F)F)cc2)C2=NCCCN23)c1 [TR‐98] | – | – | – | – | – | – | 21 | 24 | 310 | – | – | –
N#Cc1cccc(CN2CCC3=C(C2)C(=O)N(Cc2ccc(Cl)cc2)C2=NCC(F)(F)CN23)c1 [TR‐106] | – | – | – | – | – | – | 430 | 120 | 1100 | – | – | –
N#Cc1cccc(CC2CCC3=C(C2)C(=O)N(Cc2ccc(C(F)(F)F)cc2)C2=NCCN23)c1 (stereo not shown) [TR‐109] | – | – | – | – | – | – | 2200 | 4600 | 670 | – | – | –
N#Cc1cccc(CC2CCC3=C(C2)C(=O)N(Cc2ccc(Cl)cc2)C2=NCCN23)c1 (stereo not shown) [TR‐122] | – | – | – | – | – | – | 2600 | 3500 | 1100 | – | – | –
